Measured values as given in patent publication US4261883A (priority 1979, dated 1981).
Where two headings read alike, the source gives them in different places.

Experiments:
[1] = test system: opioid receptors in caudate nuclei homogenate S4e; experiment: affinity labeling of opiate receptor sites by irradiation of azido compounds, caudate nuclei homogenate S4e; assay type: binding, bovine; settings: normorphine hydrochloride added before the azide and irradiation
guinea pig ileum = guinea pig ileum test (inhibition of voltage induced contractions); assay type: cell-based; settings: read-out: I.D.50 in the guinea pig ileum test

Compound	effect on the deactivation of the opioid receptors by the azide compounds [1]	IC50 (guinea pig ileum; Cavia porcellus)	IC50 (guinea pig ileum)
Oc1ccc2c3c1O[C@H]1[C@@H](O)C=C[C@H]4[C@@H](C2)NCC[C@@]341 [normorphine]	inhibit the deactivation of the opioid receptors	120 nM	–
(D-ala^ 2)met-enkephalinamide	–	–	12 nM
